According to patent US20230365577A1, “Photodynamic Therapy and Diagnosis” (RMW CHO Group Limited, priority 2020, published 2023):
Several values for one entry are separate records, joined by “and”; a condition that tells them apart may be missing. Identical values can stand only once. Counter-ions that a name gives are not always drawn. Like-named read-outs stand apart in the source and are kept apart here.

Key:
[1] = Singlet oxygen (1O2) production rate; assay type: physicochemical
From the text: The production of singlet oxygen (^1O2), cellular phototoxicity and light-independent cytotoxicity (“dark toxicity”) of a number of phyllochlorin analogues were compared against chlorin e4 disodium and Talaporfin sodium (mono-L-aspartyl chlorin e6), the active ingredient of Laserphyrin™.

[2] = tested on: SKOV3 ovarian cancer cells; assay: Phototoxicity in SKOV3 cells (652 nm laser, AlamarBlue viability); assay type: cell-based, Human; conditions: for IC50: SKOV3, 652 nm laser, estimated from fitted curves; for IC90: SKOV3, 24 h uptake, 652 nm laser 50 mW/cm2 5 mins (15 J/cm2), viability 24 h later, read-out: Cellular Toxicity: Phototoxicity IC90
Description: (§1) Human ovarian cancer cell line SKOV3 (ATCC #HTB-77) was maintained in Dulbecco's Modified Eagle Medium/Nutrient Mixture F-12 (DMEM/F-12), supplemented with 10% v/v Fetal Bovine Serum, 100 U/mL penicillin and 100 µg/mL streptomycin. Monolayer cultures were grown in a humidified incubator at 37° C. with 5% CO2.
(§2) For in vitro experiments, photosensitizers (stock solution 5.5 mM in 100% DMSO) were diluted in cell culture media (Dulbecco's Modified Eagle Medium/Nutrient Mixture F-12) supplemented with 10% v/v Fetal Bovine Serum, 100 U/mL penicillin, 100 µg/mL streptomycin and 10% w/v Kollidon-12. Once cells had reached ˜80% confluence, spent media was replaced with media containing photosensitizer and cells were incubated for the desired period of time to allow photosensitizer uptake.
SKOV3 cells were seeded in 96-well black wall plates (Greiner #655090) at a cell density of 5000 cells in 100 μl culture medium per well. On reaching ˜60% confluence, so media was aspirated and replaced with fresh media containing the relevant phyllochlorin analogue from 0-100 μM in DMSO. Cells were incubated for a further 24 hours, allowing uptake of phyllochlorin analogues.
To test for phototoxicity, cells incubated with phyllochlorin analogues (0-10 μM in DMSO) had culture media replaced after 24 hours (as above) and were then exposed to a 652 nm laser (Invion) with laser density at 50 mW/cm^2 for 5 mins (total 15 J/cm^2). Following activation, cells were cultured for a further 24 hours. Media was then replaced with fresh media containing AlamarBlue, and % viable cells remaining assessed as above. Controls included cells treated with phyllochlorin analogues but not activated by laser light; cells without phyllochlorin analogue treatment but with laser light; and untreated controls. All measurements were made in quadruplicate.
(§3) For comparative purposes, phyllochlorin analogues were tested and compared against both chlorin e4 disodium and Talaporfin sodium, a clinically approved photosensitizer used in the photodynamic treatment of lung cancers. Phototoxicity IC90 values and dark toxicity IC10 values were calculated using a log[inhibitor]-vs normalized response dose curve with variable slope, using the formula Y=100/(1+(IC90/X)^HillSlope (phototoxicity IC90) or Y=100/(1+(IC10/X)^HillSlope (dark toxicity IC10).

[3] = Acute toxicity after intraperitoneal injection; assay type: in vivo, C57BL/6 mice; conditions: 5 mg/kg intraperitoneal, 1% PVP in PBS + 20 mM HEPES, observed 30 mins
Description: To assess acute toxicity, phyllochlorin or chlorin e4 disodium (each prepared with 1% PVP in PBS+20 mM HEPES) were administered at a dose of 5 mg/kg to C57BL/6 mice by intraperitoneal injection.

[4] = tested on: SKOV3 ovarian cancer cells; assay: Inherent cytotoxicity (dark toxicity) in SKOV3 cells (AlamarBlue viability); assay type: cell-based, Human; conditions: for Concentration at which cells remained >80% viable (dark toxicity) / Concentration at which cells retained >80% viability (dark toxicity): SKOV3, 24 hours; for Concentration at which cells remained >80% viable (dark toxicity): absence of PVP; for Concentration at which cells retained >80% viability (dark toxicity): with addition of PVP
Description: as §1, §2
SKOV3 cells were seeded in 96-well black wall plates (Greiner #655090) at a cell density of 5000 cells in 100 μl culture medium per well. On reaching ˜60% confluence, media was aspirated and replaced with fresh media containing the relevant phyllochlorin analogue from 0-100 μM in DMSO. Cells were incubated for a further 24 hours, allowing uptake of phyllochlorin analogues.
To test for inherent cytotoxicity (i.e. “dark toxicity”) of the phyllochlorin analogue the culture media was replaced after 24 hours with fresh media containing 10% (v/v) AlamarBlue Cell Viability Reagent (ThermoFisher) and cells incubated at 37° C. for 6 hours. Untreated cells were used as a control. Fluorescence (Ex 555 nm/Em 596 nm) was measured using a Cytation 3 Multimode Plate Reader (Biotek), and cytotoxicity assessed according to the % viable cells remaining. All measurements were made in quadruplicate.
as §3

SKOV3 cells = assay: Cellular uptake and retention (intrinsic fluorescence); assay type: cell-based, Human; conditions: for Uptake and clearance, comparison of the two salt forms: SKOV3, 24 hours uptake then 24 hours clearance
Description: Based on the increased phototoxicity of compound 1c versus compound 1, it was assessed whether this salt substitution alters cellular uptake or retention over time. SKOV3 cells were incubated for up 24 hours in the presence of either compound 1 or 1c (as previously described). At defined time intervals (FIG. 5) the media was aspirated, replaced with sterile PBS, and cells imaged for fluorescence (Ex 405 nm/Em 660 nm) using a Cytation 3 Multimode Plate Reader (Biotek). After 24 hours the media was aspirated, replaced with fresh media and the loss of cellular fluorescence similarly monitored. All images (minimum 100 cells per time point) were then quantitatively analysed (Gen5.0 software) and an average fluorescence/cell/time point determined. Average fluorescence measurements were normalised against the maximum average value measured for each photosensitizer, and plotted as percent total fluorescence (mean±SD) overtime.
The uptake and retention of compounds 1 and 2 was compared in SKOV3 cancer cells over a 48 hour period. SKOV3 cells were incubated for up 24 hours in the presence of either compound 1 or 2 (as previously described). At defined time intervals (FIG. 6) the media was aspirated, replaced with sterile PBS, and cells imaged for fluorescence (Ex 405 nm/Em 660 nm) using a Cytation 3 Multimode Plate Reader (Biotek). After 24 hours the media was aspirated, replaced with fresh media and the loss of cellular fluorescence similarly monitored. All images (minimum 100 cells per time point) were then quantitatively analysed (Gen5.0 software) and an average fluorescence/cell/time point determined. Average fluorescence measurements were normalised against the maximum average value measured for each photosensitizer, and plotted as percent total fluorescence (mean±SD) over time.
Phyllochlorin was functionalised with saccharidyl groups (glucose or mannose) using various configurations, and the effects on rate of uptake by cells assessed over a 4 hour incubation period as above. The rate of uptake of saccharidyl-conjugated phyllochlorin analogues exceeded that of unconjugated compound 2 (examples shown in FIG. 7); after 2 hours, saccharidyl-conjugated phyllochlorin analogues (compounds 6, 8 and 17) had reached 57-68% of their maximal uptake compared to 37% for compound 2 (FIG. 7A). By 4 hours total uptake was similar, and there was no apparent difference in cellular distribution between glucose (compounds 6 and 8) and mannose (compound 17) linked species (FIG. 7B).

[5] = Estimated pKa of the carboxylic acid; assay type: physicochemical
From the text: As PBS buffer (pH 7.4) is used in the experiments and the carboxylic acid in phyllochlorin (and the same carboxy group in other related chlorins) is estimated to have a pKa of less than 5, phyllochlorin in the PBS buffer will exist predominantly as the sodium and potassium salts with very little to no free acid.

[6] = Solubility and absorbance maxima (absorbance spectra in DMSO/PBS, with or without PVP); assay type: physicochemical
Description: Absorbance maxima (660±2 nm for phyllochlorin) were used as a surrogate measure of solubility. The relevant phyllochlorin analogue was diluted to 50 μM in PBS (phosphate buffered saline) solutions containing decreasing amounts of DMSO from 100% to 0%.
Where required, polyvinylpyrrolidone (K30) was added to a final concentration of 1% w/v. Absorbance was measured using a Cytation 3 Multimode Plate Reader (Biotek) in spectral scanning mode, with spectra captured between 500-800 nm in 2 nm increments. Equivalent blank solutions were also measured and subtracted accordingly. Each spectrum was normalized to have a minimum signal of 0, and a maximum signal in pure DMSO solution (the most soluble state) of 100%.
The solubility of phyllochlorin was assessed in solutions containing DMSO as an organic solvent. Phyllochlorin (50 μM final concentration) was resuspended in 100% DMSO to fully dissolve the phyllochlorin. With phyllochlorin concentrations maintained at 50 μM the % DMSO was decreased in a stepwise manner from 100% to 0%. All solutions were mixed by vortexing, then centrifuged for 2 mins to pellet any insoluble material. A 150 μl aliquot was transferred to individual wells of a 96-well clear microplate, and absorbance spectra collected between 500-800 nm in 2 nm increments. Equivalent solutions containing decreasing % DMSO were used to control for background.

[7] = SKOV3, 24 h incubation, no light

For `C=Cc1c(C)c2cc3nc(c(C)c4[nH]c(cc5nc(cc1[nH]2)C(C)=C5CC)c(C)c4C(=O)O)[C@@H](CCC(=O)O)[C@@H]3C` [Chlorin e4 disodium, chlorin e4 disodium, reference compound], the “Singlet Oxygen Production (slope) 1O2” value [1] was 998.2, the IC50 ([2]; absence of PVP) was 4530 nM and the IC50 ([2]; with addition of PVP) was 1350 nM. For the same compound, the IC90 [2] was 21300 nM, the “Side effects (clinical signs of acute toxicity)” value [3] was “No side effects were noted” and the “Concentration at which cells remained >80% viable (dark toxicity)” value [4] was “up to 80 μM”. For the same compound, the “Concentration at which cells retained >80% viability (dark toxicity)” value [4] was 100 µM and the “Cellular Toxicity: Dark toxicity IC10” value [4, 7] was 40230 nM.

For `C=Cc1c(C)c2cc3nc(c(C)c4cc(C)c(cc5nc(cc1[nH]2)C(C)=C5CC)[nH]4)[C@@H](CCC(=O)O)[C@@H]3C` [Compound 1, phyllochlorin sodium salt], the “Singlet Oxygen Production (slope) 1O2” value ([1]; sodium salt) was 1445.0, the IC90 ([2]; sodium salt) was 350 nM and the “Uptake and clearance, comparison of the two salt forms” value (SKOV3 cells) was “no significant difference”. The “Fluorescence lost from cells” value (SKOV3 cells; SKOV3, within 4 hours after replacing media) was 80% and the “Cellular Toxicity: Dark toxicity IC10” value ([4]; human, 24 h) was 21960 nM.

For `C=Cc1c(C)c2cc3nc(c(C)c4cc(C)c(cc5nc(cc1[nH]2)C(C)=C5CC)[nH]4)[C@@H](CCC(=O)O)[C@@H]3C` [Compound 1c, phyllochlorin choline salt], the “Singlet Oxygen Production (slope) 1O2” value [1] was 1229.0, the IC90 [2] was 210 nM and the “Uptake and clearance, comparison of the two salt forms” value (SKOV3 cells) was “no significant difference”. The “Cellular Toxicity: Dark toxicity IC10” value ([4]; human, 24 h) was 58010 nM.

In the case of `C=Cc1c(C)c2cc3nc(c(C)c4cc(C)c(cc5nc(cc1[nH]2)C(C)=C5CC)[nH]4)[C@@H](CCC(=O)OC)[C@@H]3C` [Compound 2, phyllochlorin methyl ester], the “Singlet Oxygen Production (slope) 1O2” value [1] is reported as 2141.0, the IC90 ([2]; Homo sapiens, SK-OV-3, light or radiation study) is reported as 260 nM and the “Percent of maximal uptake” value (SKOV3 cells; SKOV3, after 2 hours incubation) is reported as 37%. For the same compound, the “Compound remaining within cells” value (SKOV3 cells; SKOV3, after 24 hours clearance) was > 50% and the “Cellular Toxicity: Dark toxicity IC10” value ([4]; human, 24 h) was 39620 nM.

For `C=CC1=C(C)c2cc3nc(c(C)c4cc(C)c(cc5[nH]c(cc1n2)c(C)c5CC)[nH]4)[C@@H](CCC(=O)O)[C@@H]3C` [Phyllochlorin free acid, phyllochlorin free acid], the “Singlet Oxygen Production (slope) 1O2” value [1] was 1335.5, the IC50 ([2]; absence of PVP) was 63.1 nM and 60 nM and the IC50 ([2]; with addition of PVP) was 53.9 nM. The IC90 [2] was 290 nM, the “Times more potent as a phototoxic agent than chlorin e4 disodium salt” value ([2]; ovarian cancer cells, head to head, without PVP) was ~75 times and the “pKa of the carboxylic acid” value [5] was “less than 5”. The Solubility ([6]; 50 μM, 1% w/v PVP, absorbance as surrogate) was “remained soluble in aqueous solvent (without DMSO)”, the Absorbance maxima ([6]; aqueous solvent, single broad peak) was 688±2 nm and the Absorbance maxima ([6]; fully solubilized in organic solvent (75% DMSO and above)) was 660±2 nm. The “Side effects (clinical signs of acute toxicity)” value [3] was “No side effects were noted”, the “Concentration at which cells remained >80% viable (dark toxicity)” value [4] was 10 µM and the “Concentration at which cells retained >80% viability (dark toxicity)” value [4] was “up to 25 μM”. For the same compound, the “Cellular Toxicity: Dark toxicity IC10” value [4, 7] was 13810 nM.
